Common to all, as to format: cell-based
The subject of one assay is Phospho-Rb (Ser807/811). Briefly: Phospho-Retinoblastoma (pRB) Cellular Assay. Particulars: Homo sapiens, OVCAR-3, NIH OVCAR3 cells, 24 hours; for IC50: concentration giving 50% response; for Emax: maximum response, reference compound at 10 μM = 100%, read-out: pRB Ymax. In a few lines: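 OVCAR3 cells seeded overnight, then dosed with serial dilutions for 24 h at 37° C. Lysed with kit mix plus phosphatase inhibitor, ≥4 h at room temperature, read on EnVision; 100% response set by reference compound at 10 μM, giving IC50 and Ymax.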

For the next assay, the target named is Cyclin E1 (Homo sapiens, UniProt P24864+Q96SW2). Put plainly: Cyclin E1 Cellular Degradation Assay (MSD). Further details: endogenous in cells; host or cells: OVCAR3. The following applies: for DC50 / Dmax: Cyclin E1 cellular degradation; for Dmax: maximum degradation; for Ratio of GSPT1 DC50/Cyclin E1 DC50: selectivity for degradation of Cyclin E1 over GSPT1. In a few lines:
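OVCAR3 cells treated with compound for 24 h at 37 °C, lysed, and cyclin E1 measured by MSD sandwich immunoassay (rabbit capture, mouse detection anti-CCNE1). Reference degrader at […] defined 110% response; DC50 and Dmax derived from response.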

A further assay concerns the target GSPT1 (Homo sapiens, UniProt P15170+Q96SW2). Put plainly: GSPT1 Cellular Degradation Assay (DF15-GSPT1-ePL). Particulars: DF15-GSPT1-ePL cells, 20 hours. Further details: expressed in transfected cells. In a few lines: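 Human DF15 cells co-expressing a GSPT1–ePL fusion were treated with compound in RPMI 1640/10% FBS for 20 h at 37 °C. GSPT1 level was read by enzyme-fragment-complementation luminescence after 60 min with detection reagent. The reference degrader at […] defined 75% response; DC50 and Dmax were reported.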

Where only a bound is given, the exact number is not on record here.

Cyclin E1, sequence (P24864 whole entry): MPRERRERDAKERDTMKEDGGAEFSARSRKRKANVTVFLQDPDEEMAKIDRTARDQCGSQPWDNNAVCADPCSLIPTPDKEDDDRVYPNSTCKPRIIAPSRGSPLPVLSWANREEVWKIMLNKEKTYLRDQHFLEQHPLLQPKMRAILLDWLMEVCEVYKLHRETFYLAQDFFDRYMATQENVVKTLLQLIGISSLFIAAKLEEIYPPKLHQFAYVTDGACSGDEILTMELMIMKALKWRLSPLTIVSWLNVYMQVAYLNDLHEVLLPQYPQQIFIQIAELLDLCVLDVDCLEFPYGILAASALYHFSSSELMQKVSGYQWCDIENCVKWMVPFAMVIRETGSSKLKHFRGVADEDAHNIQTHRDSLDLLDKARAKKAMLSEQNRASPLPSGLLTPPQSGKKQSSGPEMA
Cyclin E1, sequence (Q96SW2 whole entry): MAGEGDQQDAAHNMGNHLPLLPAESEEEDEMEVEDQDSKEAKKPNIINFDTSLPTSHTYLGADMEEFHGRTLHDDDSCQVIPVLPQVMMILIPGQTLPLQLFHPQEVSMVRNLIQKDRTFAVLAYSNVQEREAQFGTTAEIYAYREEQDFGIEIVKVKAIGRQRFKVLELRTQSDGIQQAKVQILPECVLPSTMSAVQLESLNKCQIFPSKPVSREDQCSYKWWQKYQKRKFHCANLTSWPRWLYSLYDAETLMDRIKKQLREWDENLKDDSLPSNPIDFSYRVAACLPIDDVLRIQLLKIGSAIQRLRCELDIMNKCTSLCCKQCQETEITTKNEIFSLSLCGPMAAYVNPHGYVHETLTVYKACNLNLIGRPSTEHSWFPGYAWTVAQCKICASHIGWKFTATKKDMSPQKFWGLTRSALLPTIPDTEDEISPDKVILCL
Cyclin E1, sequence (Q16531 whole entry partner): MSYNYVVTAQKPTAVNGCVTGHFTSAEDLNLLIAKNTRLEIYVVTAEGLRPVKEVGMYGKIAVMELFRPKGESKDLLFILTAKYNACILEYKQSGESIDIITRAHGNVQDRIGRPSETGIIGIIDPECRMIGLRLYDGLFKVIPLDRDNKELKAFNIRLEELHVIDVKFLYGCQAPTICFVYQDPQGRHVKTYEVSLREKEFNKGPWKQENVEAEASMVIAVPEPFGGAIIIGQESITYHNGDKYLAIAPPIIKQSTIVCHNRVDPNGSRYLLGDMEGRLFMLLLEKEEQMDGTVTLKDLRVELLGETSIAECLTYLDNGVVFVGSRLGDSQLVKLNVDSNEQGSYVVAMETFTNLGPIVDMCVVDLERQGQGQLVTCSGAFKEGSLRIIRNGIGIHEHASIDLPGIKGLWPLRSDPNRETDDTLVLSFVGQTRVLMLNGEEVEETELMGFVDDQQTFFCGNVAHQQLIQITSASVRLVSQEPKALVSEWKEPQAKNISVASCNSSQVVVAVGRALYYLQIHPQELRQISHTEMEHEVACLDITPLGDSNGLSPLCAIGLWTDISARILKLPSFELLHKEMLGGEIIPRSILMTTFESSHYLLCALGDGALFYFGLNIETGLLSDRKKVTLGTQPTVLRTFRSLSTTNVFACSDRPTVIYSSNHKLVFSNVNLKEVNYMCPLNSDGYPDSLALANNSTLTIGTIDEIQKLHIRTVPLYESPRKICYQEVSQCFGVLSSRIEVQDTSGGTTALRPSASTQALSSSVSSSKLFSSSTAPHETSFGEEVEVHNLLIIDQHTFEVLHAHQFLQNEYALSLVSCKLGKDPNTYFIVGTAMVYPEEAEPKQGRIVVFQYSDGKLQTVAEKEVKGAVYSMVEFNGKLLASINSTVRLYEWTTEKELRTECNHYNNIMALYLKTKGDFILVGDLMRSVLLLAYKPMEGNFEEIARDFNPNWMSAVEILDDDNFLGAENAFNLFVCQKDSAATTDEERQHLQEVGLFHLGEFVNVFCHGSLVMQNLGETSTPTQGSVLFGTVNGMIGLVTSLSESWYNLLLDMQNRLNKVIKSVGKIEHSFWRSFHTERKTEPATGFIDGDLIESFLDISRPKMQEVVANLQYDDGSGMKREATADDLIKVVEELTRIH
GSPT1, sequence (P15170 whole entry, the tested form may be a part): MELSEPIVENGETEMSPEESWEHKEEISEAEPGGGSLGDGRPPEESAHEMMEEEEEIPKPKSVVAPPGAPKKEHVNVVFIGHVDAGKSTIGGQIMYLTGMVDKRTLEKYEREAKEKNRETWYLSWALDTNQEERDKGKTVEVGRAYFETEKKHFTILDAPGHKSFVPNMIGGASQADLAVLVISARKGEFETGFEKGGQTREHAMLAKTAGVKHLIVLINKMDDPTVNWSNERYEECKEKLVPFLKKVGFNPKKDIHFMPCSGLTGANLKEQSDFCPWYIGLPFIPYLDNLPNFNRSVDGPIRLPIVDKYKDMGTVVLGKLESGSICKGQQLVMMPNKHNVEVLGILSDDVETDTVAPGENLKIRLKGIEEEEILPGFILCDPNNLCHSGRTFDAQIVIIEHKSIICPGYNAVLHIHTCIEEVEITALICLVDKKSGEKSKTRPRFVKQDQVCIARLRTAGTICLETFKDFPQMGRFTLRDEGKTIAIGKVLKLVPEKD
GSPT1, sequence (Q96SW2 whole entry, the tested form may be a part): as the sequence (Q96SW2 whole entry) above
GSPT1, sequence (Q16531 whole entry partner, the tested form may be a part): as the sequence (Q16531 whole entry partner) above

Regarding `O=C1CC[C@H](N2Cc3ccc(COC(=O)Nc4ccc(Oc5ccc(F)c(F)c5)cc4)c(OCCCc4ccccc4)c3C2=O)C(=O)N1` [Example 173, {2-[(3S)-2,6-dioxopiperidin-3-yl]-3-oxo-4-(3-phenylpropoxy)-2,3-dihydro-1H-isoindol-5-yl}methyl N-[4-(3,4-difluorophenoxy)phenyl]carbamate], in the assay on Phospho-Rb (Ser807/811), the IC50 amounted to 129 nM and the Emax was 127%. Besides, on Cyclin E1, half-maximal degradation (DC50) was put at 156 nM, the Dmax stood at 105% and the “Ratio of GSPT1 DC50/Cyclin E1 DC50” value is more than 89. Also, on GSPT1, the DC50 is more than 14000 nM and the Dmax was determined as 14%.
Turning to `O=C1CCC(N2Cc3ccc(COC(=O)Nc4ccc(Oc5cc(F)cc(F)c5)cc4F)c(OC4CCOCC4)c3C2=O)C(=O)N1` (centres unmarked) [Example 140, [2-(2,6-dioxopiperidin-3-yl)-4-(oxan-4-yloxy)-3-oxo-2,3-dihydro-1H-isoindol-5-yl]methyl N-[4-(3,5-difluorophenoxy)-2-fluorophenyl]carbamate], in the assay with Phospho-Rb (Ser807/811), half-maximal inhibition (IC50) required 16 nM and the Emax was determined as 132%. On Cyclin E1, the DC50 was determined as 30 nM, the Dmax was determined as 105% and the “Ratio of GSPT1 DC50/Cyclin E1 DC50” value is given as more than 474. Also, on GSPT1, the DC50 is more than 14000 nM and the Dmax is 0%.
Turning to `COc1c(COC(=O)Nc2ccc(Oc3cc(F)c(F)cc3Cl)cc2F)ccc2c1C(=O)N(C1CCC(=O)NC1=O)C2` (centres unmarked) [Example 109, [2-(2,6-dioxopiperidin-3-yl)-4-methoxy-3-oxo-2,3-dihydro-1H-isoindol-5-yl]methyl N-[4-(2-chloro-4,5-difluorophenoxy)-2-fluorophenyl]carbamate], in the assay with Phospho-Rb (Ser807/811), half-maximal inhibition (IC50) was put at 66 nM and the Emax came to 114%. Besides, on Cyclin E1, half-maximal degradation (DC50) was put at 111 nM, the Dmax was 107% and the “Ratio of GSPT1 DC50/Cyclin E1 DC50” value was more than 127. On GSPT1, the DC50 was more than 14000 nM and the Dmax stood at 42%.
For `COc1c(COC(=O)Nc2ccc(Oc3cc(F)c(F)c(F)c3)cc2Cl)ccc2c1C(=O)N(C1CCC(=O)NC1=O)C2` (centres unmarked) [Example 25, [2-(2,6-dioxopiperidin-3-yl)-4-methoxy-3-oxo-2,3-dihydro-1H-isoindol-5-yl]methyl N-[2-chloro-4-(3,4,5-trifluorophenoxy)phenyl]carbamate], in the assay on Phospho-Rb (Ser807/811), the half-maximal inhibitory concentration (IC50) stood at 187 nM and the Emax worked out at 96%. Moreover, on Cyclin E1, the half-maximal degradation concentration (DC50) was found to be 184 nM, the Dmax was found to be 107% and the “Ratio of GSPT1 DC50/Cyclin E1 DC50” value is on record as more than 76. Moreover, at GSPT1, the DC50 was more than 14000 nM and the Dmax amounted to 37%.
In the case of `COc1c(COC(=O)Nc2ccc(N(C)c3cccc(F)c3)cc2)ccc2c1C(=O)N(C1CCC(=O)NC1=O)C2` (centres unmarked) [Example 8, [2-(2,6-dioxopiperidin-3-yl)-4-methoxy-3-oxo-2,3-dihydro-1H-isoindol-5-yl]methyl N-{4-[(3-fluorophenyl)(methyl)amino]phenyl}carbamate], in the assay on Phospho-Rb (Ser807/811), the half-inhibitory concentration (IC50) is 1230 nM and the Emax amounted to 99%. On Cyclin E1, the DC50 came out at 353 nM, the Dmax was 104% and the “Ratio of GSPT1 DC50/Cyclin E1 DC50” value is on record as more than 40. Moreover, at GSPT1, the DC50 was more than 14000 nM and the Dmax came to 15%.
Turning to `O=C1CCC(N2Cc3ccc(COC(=O)Nc4ccc(Oc5ccc(F)c(F)c5)cc4)c(O[C@H]4CC[C@H](O)CC4)c3C2=O)C(=O)N1` (stereo partly drawn) [Example 166, [2-(2,6-dioxopiperidin-3-yl)-3-oxo-4-{[(1R,4R)-4-hydroxycyclohexyl]oxy}-2,3-dihydro-1H-isoindol-5-yl]methyl N-[4-(3,4-difluorophenoxy)phenyl]carbamate], in the assay with Phospho-Rb (Ser807/811), the concentration for half-maximal inhibition (IC50) was determined as 95 nM and the Emax is 134%. Further, at Cyclin E1, the DC50 turned out to be 87 nM, the Dmax amounted to 108% and the “Ratio of GSPT1 DC50/Cyclin E1 DC50” value is more than 160. Further, at GSPT1, the DC50 is more than 14000 nM and the Dmax was 27%.
Consider `COc1c(COC(=O)Nc2ccc(Oc3ccc(F)cc3Cl)cc2)ccc2c1C(=O)N(C1CCC(=O)NC1=O)C2` (centres unmarked) [Example 102, [2-(2,6-dioxopiperidin-3-yl)-4-methoxy-3-oxo-2,3-dihydro-1H-isoindol-5-yl]methyl N-[4-(2-chloro-4-fluorophenoxy)phenyl]carbamate], for which, in the assay with Phospho-Rb (Ser807/811), the IC50 worked out at 121 nM and the Emax came to 120%. Also, on Cyclin E1, the DC50 worked out at 59 nM, the Dmax came to 108% and the “Ratio of GSPT1 DC50/Cyclin E1 DC50” value was more than 236. Besides, on GSPT1, the 50% degradation concentration (DC50) was more than 14000 nM and the Dmax stood at 35%.
Consider `COc1cc(Oc2cc(F)c(F)cc2C)ccc1NC(=O)OCc1ccc2c(c1OC)C(=O)N(C1CCC(=O)NC1=O)C2` (centres unmarked) [Example 73, [2-(2,6-dioxopiperidin-3-yl)-4-methoxy-3-oxo-2,3-dihydro-1H-isoindol-5-yl]methyl N-[4-(4,5-difluoro-2-methylphenoxy)-2-methoxyphenyl]carbamate], for which, in the assay with Phospho-Rb (Ser807/811), the IC50 was determined as 272 nM and the Emax is 118%. Also, at Cyclin E1, half-maximal degradation (DC50) was put at 312 nM, the Dmax amounted to 102% and the “Ratio of GSPT1 DC50/Cyclin E1 DC50” value is more than 45. On GSPT1, the half-maximal degradation concentration (DC50) was more than 14000 nM and the Dmax worked out at 27%.
Take `COc1cc(Oc2ccc(F)cc2Cl)ccc1NC(=O)OCc1ccc2c(c1OC)C(=O)N(C1CCC(=O)NC1=O)C2` (centres unmarked) [Example 104, [2-(2,6-dioxopiperidin-3-yl)-4-methoxy-3-oxo-2,3-dihydro-1H-isoindol-5-yl]methyl N-[4-(2-chloro-4-fluorophenoxy)-2-methoxyphenyl]carbamate]: in the assay with Phospho-Rb (Ser807/811), the 50% inhibitory concentration (IC50) is 50 nM and the Emax was 118%. Moreover, on Cyclin E1, the 50% degradation concentration (DC50) worked out at 37 nM, the Dmax stood at 108% and the “Ratio of GSPT1 DC50/Cyclin E1 DC50” value was more than 380. In addition, at GSPT1, the 50% degradation concentration (DC50) was more than 14000 nM and the Dmax is 7%.
Consider `CC(C)COc1c(COC(=O)Nc2ccc(Oc3ccc(F)c(F)c3)cc2)ccc2c1C(=O)N(C1CCC(=O)NC1=O)C2` (centres unmarked) [Example 138, [2-(2,6-dioxopiperidin-3-yl)-4-(2-methylpropoxy)-3-oxo-2,3-dihydro-1H-isoindol-5-yl]methyl N-[4-(3,4-difluorophenoxy)phenyl]carbamate], for which, in the assay with Phospho-Rb (Ser807/811), 45 nM corresponded to half-maximal inhibition (IC50) and the Emax stood at 120%. For the same compound, on Cyclin E1, the half-maximal degradation concentration (DC50) is 173 nM, the Dmax amounted to 108% and the “Ratio of GSPT1 DC50/Cyclin E1 DC50” value is on record as more than 81. In addition, at GSPT1, the half-maximal degradation concentration (DC50) was more than 14000 nM and the Dmax came to 9%.
For `COc1c(COC(=O)Nc2ccc(Oc3cccc(F)c3)cc2Cl)ccc2c1C(=O)N(C1CCC(=O)NC1=O)C2` (centres unmarked) [Example 27, [2-(2,6-dioxopiperidin-3-yl)-4-methoxy-3-oxo-2,3-dihydro-1H-isoindol-5-yl]methyl N-[2-chloro-4-(3-fluorophenoxy)phenyl]carbamate], in the assay with Phospho-Rb (Ser807/811), it took 1180 nM to reach half-maximal inhibition (IC50) and the Emax amounted to 86%. For the same compound, on Cyclin E1, the half-maximal degradation concentration (DC50) is 93 nM, the Dmax came to 104% and the “Ratio of GSPT1 DC50/Cyclin E1 DC50” value is on record as more than 151. Also, on GSPT1, the 50% degradation concentration (DC50) is more than 14000 nM and the Dmax came to 30%.
Turning to `COc1c(COC(=O)Nc2ccc(Oc3ccc(F)cc3)cc2C)ccc2c1C(=O)N(C1CCC(=O)NC1=O)C2` (centres unmarked) [Example 51, [2-(2,6-dioxopiperidin-3-yl)-4-methoxy-3-oxo-2,3-dihydro-1H-isoindol-5-yl]methyl N-[4-(4-fluorophenoxy)-2-methylphenyl]carbamate], in the assay on Phospho-Rb (Ser807/811), 188 nM corresponded to half-maximal inhibition (IC50) and the Emax was 109%. Further, on Cyclin E1, half-maximal degradation (DC50) was put at 363 nM, the Dmax was determined as 106% and the “Ratio of GSPT1 DC50/Cyclin E1 DC50” value was more than 39. At GSPT1, the DC50 is more than 14000 nM and the Dmax was found to be 16%.
As to `O=C1CCC(N2Cc3ccc(COC(=O)Nc4ccc(Oc5ccc(F)cc5F)cc4F)c(OC4CCOCC4)c3C2=O)C(=O)N1` (centres unmarked) [Example 136, [2-(2,6-dioxopiperidin-3-yl)-4-(oxan-4-yloxy)-3-oxo-2,3-dihydro-1H-isoindol-5-yl]methyl N-[4-(2,4-difluorophenoxy)-2-fluorophenyl]carbamate], in the assay on Phospho-Rb (Ser807/811), the concentration for half-maximal inhibition (IC50) was 24 nM and the Emax worked out at 144%. In addition, at Cyclin E1, the 50% degradation concentration (DC50) was 38 nM, the Dmax worked out at 110% and the “Ratio of GSPT1 DC50/Cyclin E1 DC50” value was more than 368. Besides, on GSPT1, the DC50 is more than 14000 nM and the Dmax came out at 11%.
`COc1c(COC(=O)Nc2ccc(Oc3cc(F)c(F)c(F)c3)cc2)ccc2c1C(=O)N(C1CCC(=O)NC1=O)C2` (centres unmarked) [Example 77, [2-(2,6-dioxopiperidin-3-yl)-4-methoxy-3-oxo-2,3-dihydro-1H-isoindol-5-yl]methyl N-[4-(3,4,5-trifluorophenoxy)phenyl]carbamate]: in the assay on Phospho-Rb (Ser807/811), the half-maximal inhibitory concentration (IC50) was 163 nM and the Emax was determined as 94%. For the same compound, on Cyclin E1, the 50% degradation concentration (DC50) stood at 284 nM, the Dmax turned out to be 113% and the “Ratio of GSPT1 DC50/Cyclin E1 DC50” value is reported as more than 49. Moreover, at GSPT1, the DC50 is more than 14000 nM and the Dmax was found to be 32%.

In general, IC50 refers to the midpoint of a concentration-inhibition curve. A high value points to lower potency. One may read the DC50 as the midpoint of the concentration-degradation curve. A lower DC50 goes with degradation at low concentration. A word on the Dmax: it is the greatest extent of degradation seen.

The values above are taken from patent US20250084056A1, “SUBSTITUTED OXOISOINDOLINYL PIPERIDINE-2,6-DIONE COMPOUNDS” (BRISTOL-MYERS SQUIBB COMPANY, priority 2023, published 2025).
